Legend:
rat [1] = conditions: Subchronic oral toxicity in rodents, fischer, Feed, dose end: 14 week, group: systemic
rat [2] = conditions: Combined chronic toxicity/carcinogenicity, fischer, Oral, Feed, dose end: 2 year, group: systemic
mouse [3] = conditions: Carcinogenicity; b6c3f1; Oral; Feed; dose end: 2 year; group: systemic; systemic / pathology microscopic / liver / hypertrophy
mouse [4] = conditions: Subchronic oral toxicity in rodents, b6c3f1, Feed, dose end: 14 week, group: systemic
mouse [5] = conditions: Subchronic oral toxicity in rodents, other, Feed, dose end: 91 day, group: systemic
dog [6] = conditions: Chronic toxicity, beagle, Oral, Feed, dose end: 364 day, group: systemic
rat [7] = conditions: Subchronic oral toxicity in rodents, wistar, Feed, dose end: 13 week, group: systemic
rat [8] = conditions: Carcinogenicity, wistar, Oral, Feed, dose end: 24 month, group: systemic
rat [9] = conditions: Prenatal developmental toxicity study, wistar, Oral, Gavage/Intubation, dose end: 19 GD
rabbit [10] = conditions: Prenatal developmental toxicity study, himalayan, Oral, Gavage/Intubation, dose end: 28 GD
dog [11] = conditions: Subchronic oral toxicity in nonrodent, beagle, Feed, dose end: 90 day, group: systemic
mouse [12] = conditions: Carcinogenicity, other, Oral, Feed, dose end: 78 week, group: systemic
rat [13] = conditions: Chronic toxicity; wistar; Oral; Feed; dose end: 364 day; group: systemic; systemic / pathology gross / eye / opacity + systemic / pathology microscopic / eye / corneal pannus + systemic / pathology microscopic / …
rabbit [14] = conditions: Prenatal developmental toxicity study, new zealand white, Oral, Gavage/Intubation, dose end: 28 GD
rat [15] = conditions: Multigenerational reproductive toxicity study, wistar, Oral, Feed, dose end: 2 generation
[16] = systemic / clinical chemistry / alkaline phosphatase (alp/alk) / alkaline phosphatase (alp/alk)
[17] = systemic / in life observation / body weight / body weight + systemic / pathology microscopic / liver / hypertrophy
[18] = systemic / hematology / platelet / platelet
[19] = systemic / in life observation / body weight / body weight + systemic / in life observation / body weight / body weight gain + systemic / …
[20] = systemic / in life observation / food consumption / food consumption + systemic / organ weight / testes / absolute + systemic / organ weight…
[21] = systemic / in life observation / food consumption / food efficiency + systemic / urinalysis / ketones / ketones + systemic / urinalysis / ph…
[22] = systemic / pathology gross / thyroid gland / altered colloid
[23] = systemic / in life observation / mortality / mortality + systemic / pathology gross / lymph node / enlarged + systemic / pathology gross / …
[24] = group: developmental, developmental / developmental malformation / bone / full supernumerary + developmental / developmental malformation / bone / misshapen + …
[25] = group: maternal, systemic / in life observation / body weight / body weight gain
[26] = group: developmental, developmental / developmental malformation / bone / [other] + developmental / developmental malformation / bone / incomplete ossification + …
[27] = group: maternal, reproductive / reproductive performance / aborted / aborted + systemic / in life observation / body weight / body weight gain + systemic / …
[28] = systemic / in life observation / body weight / body weight gain + systemic / in life observation / food consumption / food efficiency + …
[29] = systemic / urinalysis / ketones / ketones
[30] = systemic / in life observation / body weight / body weight + systemic / in life observation / body weight / body weight gain
[31] = group: developmental, developmental / developmental malformation / bone / ossification sites + developmental / developmental malformation / bone / supernumerary
[32] = group: developmental, developmental / developmental malformation / bone / ossification sites + developmental / developmental malformation / bone / supernumerary…
[33] = group: maternal, systemic / clinical chemistry / tyrosine / tyrosine
[34] = group: offspring, systemic / organ weight / spleen / absolute + systemic / organ weight / spleen / relative to body weight
[35] = group: parental, systemic / organ weight / kidney / absolute + systemic / organ weight / kidney / relative to body weight + systemic / organ weight / liver…
[36] = group: parental, systemic / organ weight / thyroid gland / absolute

O=S(=O)(c1ccc(Cl)cc1)c1ccc(Cl)cc1 [4,4'-Dichlorodiphenyl sulfone]
LEL (rat [1]; [16]): 2 mg/kg/day | NEL (rat [1]; [16]): < 2 mg/kg/day | NOAEL (rat [1]; systemic / organ weight / liver / absolute + systemic / organ weight / liver / relative to body weight + systemic / clinical chemistry / …): 2 mg/kg/day | LOAEL (rat [1]; systemic / organ weight / liver / absolute + systemic / organ weight / liver / relative to body weight + systemic / pathology microscopic / …): 6 mg/kg/day | LEL (rat [2]; systemic / in life observation / body weight / body weight): 1.5 mg/kg/day | NEL (rat [2]; [17]): 0.5 mg/kg/day | NOAEL (rat [2]; [17]): 1.5 mg/kg/day | LOAEL (rat [2]; systemic / pathology microscopic / liver / hypertrophy): 5 mg/kg/day | LEL (mouse [3]): 3.8 mg/kg/day | LOAEL (mouse [3]): 3.8 mg/kg/day | NEL (mouse [3]): < 3.8 mg/kg/day | NOAEL (mouse [3]): < 3.8 mg/kg/day | LEL (mouse [4]; [18]): 3.5 mg/kg/day | NEL (mouse [4]; [18]): < 3.5 mg/kg/day | LOAEL (mouse [4]; [19]): 50 mg/kg/day | NOAEL (mouse [4]; [19]): 15 mg/kg/day

Cc1c(C(=O)c2c[nH]n(C)c2=O)ccc(S(C)(=O)=O)c1C1=NOCC1 [Topramezone]
LOAEL (mouse [5]; [20]): > 2290 mg/kg/day | NOAEL (mouse [5]; [20]): ≥ 2290 mg/kg/day | LEL (mouse [5]; systemic / organ weight / liver / relative to body weight): 406 mg/kg/day | NEL (mouse [5]; systemic / organ weight / liver / relative to body weight + systemic / in life observation / body weight / body weight gain + systemic / in …): 51 mg/kg/day | LEL (dog [6]; [21]): 2.9 mg/kg/day | NEL (dog [6]; [21]): < 2.9 mg/kg/day | LOAEL (dog [6]; systemic / pathology microscopic / thyroid gland / hyperplasia): 15.3 mg/kg/day | NOAEL (dog [6]; systemic / pathology microscopic / thyroid gland / hyperplasia + systemic / in life observation / body weight / body weight + systemic / in …): 2.9 mg/kg/day | LEL (rat [7]; [22]): 1.1 mg/kg/day | NEL (rat [7]; [22]): < 1.1 mg/kg/day | LOAEL (rat [7]; systemic / pathology microscopic / pancreas / degeneration): 2.1 mg/kg/day | NOAEL (rat [7]; systemic / pathology microscopic / pancreas / degeneration + systemic / clinical chemistry / alkaline phosphatase (alp/alk) / alkaline …): 1.1 mg/kg/day | LEL (rat [8]; [23]): 0.4 mg/kg/day | NEL (rat [8]; [23]): < 0.4 mg/kg/day | NOAEL (rat [8]; [23]): 0.4 mg/kg/day | LOAEL (rat [8]; systemic / pathology microscopic / thyroid gland / hyperplasia + systemic / pathology microscopic / thyroid gland / hypertrophy + systemic…): 3.6 mg/kg/day | LEL (rat [9]; [24]): 100 mg/kg/day | LOAEL (rat [9]; [24]): 100 mg/kg/day | NEL (rat [9]; [24]): < 100 mg/kg/day | NOAEL (rat [9]; [24]): < 100 mg/kg/day | LEL (rat [9]; [25]): 100 mg/kg/day | LOAEL (rat [9]; [25]): 100 mg/kg/day | NEL (rat [9]; [25]): < 100 mg/kg/day | NOAEL (rat [9]; [25]): < 100 mg/kg/day | LEL (rabbit [10]; [26]): 50 mg/kg/day | LOAEL (rabbit [10]; [26]): 50 mg/kg/day | NEL (rabbit [10]; [26]): < 50 mg/kg/day | NOAEL (rabbit [10]; [26]): < 50 mg/kg/day | LEL (rabbit [10]; [27]): 450 mg/kg/day | LOAEL (rabbit [10]; [27]): 450 mg/kg/day | NEL (rabbit [10]; [27]): 150 mg/kg/day | NOAEL (rabbit [10]; [27]): 150 mg/kg/day | LOAEL (dog [11]; [28]): 1510 mg/kg/day | NOAEL (dog [11]; [28]): 535 mg/kg/day | LEL (dog [11]; [29]): 182 mg/kg/day | NEL (dog [11]; [29]): < 182 mg/kg/day | LOAEL (mouse [12]; [30]): 19 mg/kg/day | NOAEL (mouse [12]; [30]): < 19 mg/kg/day | LEL (mouse [12]; [19]): 19 mg/kg/day | NEL (mouse [12]; [19]): < 19 mg/kg/day | LEL (rat [13]): 3.9 mg/kg/day | LOAEL (rat [13]): 3.9 mg/kg/day | NEL (rat [13]): 0.4 mg/kg/day | NOAEL (rat [13]): 0.4 mg/kg/day | LEL (rabbit [14]; [31]): 5 mg/kg/day | LOAEL (rabbit [14]; [31]): 5 mg/kg/day | NEL (rabbit [14]; [32]): 0.5 mg/kg/day | NOAEL (rabbit [14]; [32]): 0.5 mg/kg/day | LEL (rabbit [14]; [33]): 0.5 mg/kg/day | LOAEL (rabbit [14]; [33]): 0.5 mg/kg/day | NEL (rabbit [14]; [33]): < 0.5 mg/kg/day | NOAEL (rabbit [14]; [33]): < 0.5 mg/kg/day | NOAEL (rat [15]; group: offspring, developmental / developmental landmark / preputial separation / preputial separation + developmental / offspring survival late / viability …): 0.4 mg/kg/day | LOAEL (rat [15]; group: offspring, developmental / developmental landmark / preputial separation / preputial separation + systemic / in life observation / body weight / litter…): 4.2 mg/kg/day | LEL (rat [15]; [34]): 0.4 mg/kg/day | NEL (rat [15]; [34]): < 0.4 mg/kg/day | LOAEL (rat [15]; [35]): 4.2 mg/kg/day | NOAEL (rat [15]; [35]): 0.4 mg/kg/day | LEL (rat [15]; [36]): 0.5 mg/kg/day | NEL (rat [15]; [36]): < 0.5 mg/kg/day

Reference: EPA's ToxRefDB 2
